pIC50: −log10 of the molar value.
What was measured:
[1] = target: IDH1 R132C (Homo sapiens (Human), UniProt O75874, R132C); experiment: In vitro NADPH depletion assay for IDH1m inhibitors (R132C); type: biochemical; settings: IDH1 R132C enzyme, read-out: IDH R132C IC50
Method: (§1) A test compound is prepared as 10 mM stock in DMSO and diluted to 50× final concentration in DMSO, for a 50 μl reaction mixture. IDH enzyme activity converting alpha-ketoglutarate to 2-hydroxyglutaric acid is measured using a NADPH depletion assay. In the assay the remaining cofactor is measured at the end of the reaction with the addition of a catalytic excess of diaphorase and resazurin, to generate a fluorescent signal in proportion to the amount of NADPH remaining. […] The reaction is started with the addition of […] Substrate Mix ([…] NADPH, 5 mM alpha-ketoglutarate, in Assay Buffer) and the mixture is incubated for 90 minutes at room temperature.
The concentration of NADPH and alpha-ketoglutarate in the Substrate Buffer is 20 μM and 1 mM, respectively.

[2] = target: IDH1 R132H (Homo sapiens (Human), UniProt O75874, R132H); experiment: In vitro NADPH depletion assay for IDH1m inhibitors (R132H); type: biochemical; settings: IDH1 R132H enzyme, read-out: IDH R132H IC50
Method: as §1

[3] = system: U87MG cells; experiment: Cellular assay, inhibition of 2-HG production in U87MG cells; type: cell-based; settings: Homo sapiens, U-87 MG, 48 h
Method: Cells (HT1080 or U87MG) are grown in T125 flasks in DMEM containing 10% FBS, 1× penicillin/streptomycin and 500 ug/mL G418 (present in U87MG cells only). They are harvested by trypsin and seeded into 96 well white bottom plates at a density of 5000 cell/well in 100 ul/well in DMEM with 10% FBS. […] Cells are incubated overnight at 37° C. in 5% CO2. The next day test compounds are made up at 2× the final concentration and 100 ul are added to each cell well. The final concentration of DMSO is 0.2% and the DMSO control wells are plated in row G. The plates are then placed in the incubator for 48 hours. […] The cell plate is placed back in the incubator for another 24 hours. At 72 hours post compound addition, 10 mL/plate of Promega Cell Titer Glo reagent is thawed and mixed. The cell plate is removed from the incubator and allowed to equilibrate to room temperature. Then 100 ul of Promega Cell Titer Glo reagent is added to each well of media. The cell plate is then placed on an orbital shaker for 10 minutes and then allowed to sit at room temperature for 20 minutes. The plate is then read for luminescence with an integration time of 500 ms.

IDH1 R132C, sequence (O75874 whole entry R132C): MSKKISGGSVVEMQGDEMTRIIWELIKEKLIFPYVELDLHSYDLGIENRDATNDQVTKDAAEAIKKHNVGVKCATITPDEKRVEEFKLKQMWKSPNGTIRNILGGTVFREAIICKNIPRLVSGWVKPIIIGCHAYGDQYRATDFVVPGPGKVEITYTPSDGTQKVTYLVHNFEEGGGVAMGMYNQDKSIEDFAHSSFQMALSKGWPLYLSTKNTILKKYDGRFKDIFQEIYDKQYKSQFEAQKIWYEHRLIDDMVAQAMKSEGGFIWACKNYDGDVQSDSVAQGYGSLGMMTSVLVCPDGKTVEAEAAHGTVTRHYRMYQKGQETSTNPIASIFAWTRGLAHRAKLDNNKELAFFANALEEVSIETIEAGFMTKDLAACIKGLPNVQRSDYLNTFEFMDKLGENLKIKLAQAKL
IDH1 R132H, sequence (O75874 whole entry R132H): as the sequence (O75874 whole entry R132C) above, with C132H counted along it

Row | Compound | pIC50 [1] | pIC50 [2] | pIC50 [3]
1 | O=C(NC1CC(F)(F)C1)[C@H](c1ccccc1Cl)N(C(=O)[C@@H]1CCC(=O)N1c1nccc2ccccc12)c1cccc(F)c1 [Compound 16] | 6.30 to 7.00 | 6.30 to 7.00 | –
2 | O=C(NC1CC(F)(F)C1)[C@H](c1ccccc1Cl)N(C(=O)[C@@H]1CCC(=O)N1c1cnccn1)c1cccc(F)c1 [Compound 18] | – | – | > 7.00
3 | O=C(NC1CC(F)(F)C1)[C@H](c1ccccc1Cl)N(C(=O)[C@@H]1CCC(=O)N1c1cccc(F)n1)c1cccc(F)c1 [Compound 11] | 6.30 to 7.00 | – | –
4 | O=C(NC1CC(F)(F)C1)[C@H](c1ccccc1Cl)N(C(=O)[C@@H]1CCC(=O)N1c1ccccn1)c1cccc(F)c1 [Compound 5] | – | – | 6.30 to 7.00
5 | O=C(NC1CC(F)(F)C1)[C@H](c1ccccc1Cl)N(C(=O)[C@@H]1CCC(=O)N1c1ccccc1)c1cccc(F)c1 [Compound 23] | – | – | 6.30 to 7.00

Continued, values first:

Row | pIC50 [1] | pIC50 [2] | pIC50 [3] | Compound
6 | – | – | > 7.00 | N#Cc1ccnc(N2C(=O)OC[C@H]2C(=O)N(c2cccc(F)c2)[C@H](C(=O)NC2CCC(F)(F)CC2)c2ccccc2Cl)c1 [Compound 78, (S)—N—((S)-1-(2-Chlorophenyl)-2-((4,4-difluorocyclohexyl)amino)-2-oxoethyl)-3-(4-cyano-pyridin-2-yl)-N-(3-fluorophenyl)-2-oxooxazolidine-4-carboxamide]
7 | – | – | 6.30 to 7.00 | CS(=O)(=O)c1cc(F)cc(N(C(=O)[C@@H]2CCC(=O)N2c2nccc(C#N)n2)[C@H](C(=O)NC2CC(F)(F)C2)c2ccccc2Cl)c1 [Compound 109, (S)—N—((S)-1-(2-Chlorophenyl)-2-((3,3-difluorocyclobutyl)amino)-2-oxoethyl)-1-(4-cyanopyrimidin-2-yl)-N-(3-fluoro-5-(methylsulfonyl)phenyl)-5-oxopyrrolidine-2-carboxamide]
8 | – | – | > 7.00 | N#Cc1ccnc(N2C(=O)CC[C@H]2C(=O)N(c2cccc(C3(O)CC3)c2)[C@H](C(=O)NC2CC(F)(F)C2)c2ccccc2Cl)c1 [Compound 140, (S)—N—((S)-1-(2-Xhlorophenyl)-2-(3,3-difluorocyclobutylamino)-2-oxoethyl)-1-(4-cyanopyridin-2-yl)-N-(3-(1-hydroxycyclopropyl)phenyl)-5-oxopyrrolidine-2-carboxamide]
9 | – | – | > 7.00 | CS(=O)(=O)c1cc(F)cc(N(C(=O)[C@@H]2CCC(=O)N2c2cc(C#N)ccn2)C(C(=O)NC2CCC(F)(F)CC2)c2ccccc2Cl)c1 (mixture of isomers) [Compound 105, (2S)—N-(1-(2-Chlorophenyl)-2-((4,4-difluorocyclohexyl)amino)-2-oxoethyl)-1-(4-cyanopyridin-2-yl)-N-(3-fluoro-5-(methylsulfonyl)phenyl)-5-oxopyrrolidine-2-carboxamide]
10 | – | – | > 7.00 | CCOC(=O)CN1C[C@@H](C(=O)N(c2cccc(F)c2)[C@H](C(=O)NC2CC(F)(F)C2)c2ccccc2Cl)N(c2cc(C#N)ccn2)C1=O [Compound 94, Ethyl 2-((4S)-4-((1-(2-chlorophenyl)-2-((3,3-difluorocyclobutyl)amino)-2-oxoethyl)(3-fluorophenyl)carbamoyl)-3-(4-cyanopyridin-2-yl)-2-oxoimidazolidin-1-yl)acetate]
11 | > 7.00 | > 7.00 | > 7.00 | CS(=O)(=O)c1cc(F)cc(N(C(=O)[C@@H]2CCC(=O)N2c2cc(C#N)ccn2)C(C(=O)NC2CC(F)(F)C2)c2ccccc2Cl)c1 (mixture of isomers) [Compound 110, (2S)—N-(1-(2-Chlorophenyl)-2-((3,3-difluorocyclobutyl)amino)-2-oxoethyl)-1-(4-cyanopyridin-2-yl)-N-(3-fluoro-5-(methylsulfonyl)phenyl)-5-oxopyrrolidine-2-carboxamide]

From patent US11021515B2, “Therapeutically active compounds and their methods of use” (Agios Pharmaceuticals, Inc., priority 2013, dated 2021)
